System: P815 cells
Test: In vivo CTL induction by P815-1 formulations (anti-P1A response), 51Cr release cytotoxicity assay
Design: species or system DBA/2 mice
Settings: 30 µg peptide or equivalent, two weeks after a single immunization; restimulated with P815-2 pulsed splenocytes; Fig. 4a
Procedure: C57BL/6 mice were immunized subcutaneously with 15-30µg of soluble Ova or Ova encapsulated in microspheres (Ova/PLG). In the P1A system, DBA/2 mice were similarly immunized with P815-1 peptide alone or P815-1/PLG. PLG is defined herein as PLG1, which represents the polymeric composition of the single component system, or PLG2a-XX, which represents the polymeric composition of the blend component system. Antigens were suspended in 200 iL of PBS and injected on both flanks of the animal. As controls, mice were immunized with Ova admixed with alum as adjuvant. Fourteen to 21 days after the immunization, splenocytes were prepared as single cell suspensions and ~50'10^6 cells from each mouse were incubated with 2.5'10^6 irradiated (200,000 rad) EG7.Ova cells. […] After five days of culture, CTL activities were measured in a ^51Cr release cytotoxicity assay as described below.
To conduct a CTL assay, target cells were incubated with ^51Cr at 100 ìCi/10^6 cells at 37°C for 60 min. […] After 4 hours of incubation at 37°C, supernatant was collected from test wells using Skatron filter strips and counted on a Packard Cobra II a counter. Specific lysis was calculated as: % specific lysis =(Experimental release - Spontaneous release)/(Maximum release - Spontaneous release)X 100 [formula] […]

KKKRYSLEEILPYLGWLVFAWTTSKKK [soluble P815-1 peptide, 28 amino acid peptide, residues 28-49 of the P1A antigen with 3 lysine residues added to both termini]
CTL activity of splenocytes against P815 cells: Minimal CTL priming

Reference: patent EP1579851A2, “Rapid release encapsulated bioactive agents for inducing or potentiating an immune response and methods of use thereof” (CORIXA CORPORATION, priority 1997, dated 1999)
